Measured values published in patent US11807644B2 (PMV Pharmaceuticals, Inc., priority 2020, dated 2023).

These molecules were tested against T1, recombinant His-tag Y220C p53 DBD protein (Homo sapiens, UniProt P04637, Y220C) (assay: In vitro DNA binding activity assay (TR-FRET): binding of His-tag Y220C p53 DBD to biotin-labeled consensus DNA). Conditions: SC150 = concentration to increase DNA binding by […], His-tag Y220C p53 DBD, biotin-labeled consensus DNA.
T1 construct: recombinant His-tag Y220C p53 DBD protein (amino acids #˜94-312)
Format: biochemical

Y220C SC150 (μM) | SMILES
* (* = 0 μM ≤ SC150 < 0.1 μM) | CN1CC[C@@H](Nc2cccc3c2cc(-c2noc(CNC(=O)c4cn(-c5ccccc5)cn4)n2)n3CC(F)(F)F)[C@@H](F)C1 [Compound 197B, N-{[3-(4-{[(3S,4R)-3-fluoro-1-methylpiperidin-4-yl]amino}-1-(2,2,2-trifluoroethyl)-1H-indol-2-yl)-1,2,4-oxadiazol-5-yl]methyl}-1-phenyl-1H-imidazole-4-carboxamide]
* (* = 0 μM ≤ SC150 < 0.1 μM) | CN1CC[C@H](Nc2cccc3c2cc(-c2noc(CNC(=O)c4ccn(C)c4)n2)n3CC(F)(F)F)[C@H](F)C1 [Compound 182B, N-{[3-(4-{[(3R,4S)-3-fluoro-1-methylpiperidin-4-yl]amino}-1-(2,2,2-trifluoroethyl)-1H-indol-2-yl)-1,2,4-oxadiazol-5-yl]methyl}-1-methyl-1H-pyrrole-3-carboxamide]
* (* = 0 μM ≤ SC150 < 0.1 μM) | COc1ccc(C(=O)NCc2nnc(-c3cc4c(NC5CCN(C)CC5)cccc4n3CC(F)(F)F)s2)cc1 [Compound 63B, 4-methoxy-N-[(5-{4-[(1-methylpiperidin-4-yl)amino]-1-(2,2,2-trifluoroethyl)-1H-indol-2-yl}-1,3,4-thiadiazol-2-yl)methyl]benzamide]
* (* = 0 μM ≤ SC150 < 0.1 μM) | CN1CC[C@@H](Nc2cccc3c2cc(-c2noc(CNC(=O)c4ccn(C5(C)CCOC5)c4)n2)n3CC(F)(F)F)[C@@H](F)C1 (stereo partly drawn) [Compound 401B, N-{[3-(4-{[(3S,4R)-3-fluoro-1-methylpiperidin-4-yl]amino}-1-(2,2,2-trifluoroethyl)-1H-indol-2-yl)-1,2,4-oxadiazol-5-yl]methyl}-1-(3-methyloxolan-3-yl)-1H-pyrrole-3-carboxamide]
** (** = 0.1 μM ≤ SC150 < 0.5 μM) | CN1CC[C@@H](Nc2cccc3c2cc(-c2noc(CNc4ccnn4C(C)(C)C)n2)n3CC(F)(F)F)[C@@H](F)C1 [Compound 396B, 2-(5-{[(1-tert-butyl-1H-pyrazol-5-yl)amino]methyl}-1,2,4-oxadiazol-3-yl)-N-[(3S,4R)-3-fluoro-1-methylpiperidin-4-yl]-1-(2,2,2-trifluoroethyl)-1H-indol-4-amine]
* (* = 0 μM ≤ SC150 < 0.1 μM) | CN1CC[C@@H](Nc2cccc3c2cc(-c2noc(CNC(=O)c4cccn4CCF)n2)n3CC(F)(F)F)[C@@H](F)C1 [Compound 540B, N-{[3-(4-{[(3S,4R)-3-fluoro-1-methylpiperidin-4-yl]amino}-1-(2,2,2-trifluoroethyl)-1H-indol-2-yl)-1,2,4-oxadiazol-5-yl]methyl}-1-(2-fluoroethyl)-1H-pyrrole-2-carboxamide]
** (** = 0.1 μM ≤ SC150 < 0.5 μM) | CN1CCC(Nc2cccc3c2cc(-c2nnc(CNC(=O)C4(C)CC4)s2)n3CC(F)(F)F)CC1 [Compound 71B, 1-methyl-N-[(5-{4-[(1-methylpiperidin-4-yl)amino]-1-(2,2,2-trifluoroethyl)-1H-indol-2-yl}-1,3,4-thiadiazol-2-yl)methyl]cyclopropane-1-carboxamide]
* (* = 0 μM ≤ SC150 < 0.1 μM) | CN1CCC(Nc2cccc3c2cc(-c2noc(CNC(=O)c4ccc(Cl)cc4)n2)n3CC(F)(F)F)CC1 [Compound 148B, 4-chloro-N-[(3-{4-[(1-methylpiperidin-4-yl)amino]-1-(2,2,2-trifluoroethyl)-1H-indol-2-yl}-1,2,4-oxadiazol-5-yl)methyl]benzamide]
** (** = 0.1 μM ≤ SC150 < 0.5 μM) | CN1CCC(Nc2cccc3c2cc(-c2nc(CNC(=O)c4ccccc4)no2)n3CC(F)(F)F)CC1 [Compound 138B, N-[(5-{4-[(1-methylpiperidin-4-yl)amino]-1-(2,2,2-trifluoroethyl)-1H-indol-2-yl}-1,2,4-oxadiazol-3-yl)methyl]benzamide]
* (* = 0 μM ≤ SC150 < 0.1 μM) | COCC1(n2ccc(C(=O)NCc3nc(-c4cc5c(N[C@@H]6CCNC[C@@H]6F)cccc5n4CC(F)(F)F)no3)c2)CC1 [Compound 475B, N-{[3-(4-{[(3S,4R)-3-fluoropiperidin-4-yl]amino}-1-(2,2,2-trifluoroethyl)-1H-indol-2-yl)-1,2,4-oxadiazol-5-yl]methyl}-1-[1-(methoxymethyl)cyclopropyl]-1H-pyrrole-3-carboxamide]
* (* = 0 μM ≤ SC150 < 0.1 μM) | CN1CC[C@@H](Nc2cccc3c2cc(-c2cc(CNC(=O)c4cnn(C(C)(C)C)c4)on2)n3CC(F)(F)F)[C@@H](F)C1 [Compound 554B, 1-tert-butyl-N-{[3-(4-{[(3S,4R)-3-fluoro-1-methylpiperidin-4-yl]amino}-1-(2,2,2-trifluoroethyl)-1H-indol-2-yl)-1,2-oxazol-5-yl]methyl}-1H-pyrazole-4-carboxamide]
* (* = 0 μM ≤ SC150 < 0.1 μM) | CN1CC[C@@H](Nc2cccc3c2cc(-c2noc(CNc4ccn(C(C)(C)C)n4)n2)n3CC(F)(F)F)[C@@H](F)C1 [Compound 390B, 2-(5-{[(1-tert-butyl-1H-pyrazol-3-yl)amino]methyl}-1,2,4-oxadiazol-3-yl)-N-[(3S,4R)-3-fluoro-1-methylpiperidin-4-yl]-1-(2,2,2-trifluoroethyl)-1H-indol-4-amine]
* (* = 0 μM ≤ SC150 < 0.1 μM) | O=C(NCc1nnc(-c2cc3c(N[C@@H]4CCNC[C@@H]4F)cccc3n2CC(F)(F)F)s1)OCc1ccccc1 [Compound 70B, benzyl N-{[5-(4-{[(3S,4R)-3-fluoropiperidin-4-yl]amino}-1-(2,2,2-trifluoroethyl)-1H-indol-2-yl)-1,3,4-thiadiazol-2-yl]methyl}carbamate]
* (* = 0 μM ≤ SC150 < 0.1 μM) | CC1(n2ccc(C(=O)NCc3nc(-c4cc5c(N[C@H]6CNCC[C@H]6F)cccc5n4CC(F)(F)F)no3)c2)CCOCC1 [Compound 421B, N-{[3-(4-{[(3S,4R)-4-fluoropiperidin-3-yl]amino}-1-(2,2,2-trifluoroethyl)-1H-indol-2-yl)-1,2,4-oxadiazol-5-yl]methyl}-1-(4-methyloxan-4-yl)-1H-pyrrole-3-carboxamide]
* (* = 0 μM ≤ SC150 < 0.1 μM) | CC(C)N1CC[C@@H](Nc2cccc3c2cc(-c2noc(CNC(=O)c4cn(C(C)(C)C)cn4)n2)n3CC(F)(F)F)[C@@H](F)C1 [Compound 318B, 1-tert-butyl-N-{[3-(4-{[(3S,4R)-3-fluoro-1-(propan-2-yl)piperidin-4-yl]amino}-1-(2,2,2-trifluoroethyl)-1H-indol-2-yl)-1,2,4-oxadiazol-5-yl]methyl}-1H-imidazole-4-carboxamide]
* (* = 0 μM ≤ SC150 < 0.1 μM) | COc1cc(S(C)(=O)=O)ccc1NCc1nnc(-c2cc3c(N[C@H]4CCN(C)C[C@@H]4F)cccc3n2CC(F)(F)F)s1 (racemic) [Compound 28B, (+/−)-N-[(3R,4R)-3-fluoro-1-methylpiperidin-4-yl]-2-(5-{[(4-methanesulfonyl-2-methoxyphenyl)amino]methyl}-1,3,4-thiadiazol-2-yl)-1-(2,2,2-trifluoroethyl)-1H-indol-4-amine]

Same assay, conditions: concentration to increase DNA binding by […], incubated at either 27° C. or 29° C. for 60 min

SC150 (μM) | SMILES
+++ (+++ = 5 μM ≤ SC150 < 10 μM) | COc1cccc(-c2cc3c(NC4CCS(=O)(=O)CC4)cccc3n2CC(F)(F)F)c1 [Compound 13A, 4-{[2-(3-methoxyphenyl)-1-(2,2,2-trifluoroethyl)-1H-indol-4-yl]amino}-1λ^6-thiane-1,1-dione]
